Results taken from patent publication EP4329743B1 (priority 2021, dated 2022).

Columns and labels:
[1] = tested on: Neuraminidase (EC 3.2.1.18); assay: Neuraminidase activity assay (colorimetric kit, Sigma Aldrich MAK121); format: biochemical; conditions: maximum activity set 100%; mean of three independent experiments; Figure 4
Protocol: Neuraminidase (EC 3.2.1.18) also known as sialidase is an enzyme that hydrolyzes terminal sialic acid residues on polysaccharide chains. It is predominantly expressed on the surface of viruses and bacteria. For activity measurement, the activity was measured using the neuraminidase activity kit from Sigma Aldrich (Cat.No.: MAK121). Accordingly, the neuraminidase activity is determined by an enzymatic essay in which the sialic acid released by neuraminidase results in the colorimetric product directly proportional to neuraminidase activity in the sample. The reaction master mixture contained assay buffer, (+/-) substrate, cofactors, neuraminidase, and dye-reagent. The activity is expressed as units/L and maximum activity was arbitrarily set 100%. The effect of ethyl pyruvate and ethyl lactate on enzyme activity was evaluated by comparing the change of the absorbance against the samples with substrate (maximum activity) and without the substrate (blank).

influenza virus H9N2 = format: cell-based; conditions: MDCK II cells, H9N2, 1 h infection, 2 days culture; ethyl pyruvate 42 mM; Figure 5
[2] = tested on: inflammatory cytokines such as TNF-alpha, IL-1β, IL-6 and IL-8; assay: Release of inflammatory cytokines from LPS-stimulated human whole blood (cytometric bead array); format: cell-based; conditions: whole blood diluted 1:5, LPS 10ng/ml, 1 to 20 mM, 6 h; Figure 6
Protocol: Human heparinized whole blood was diluted with RPMI 1640 medium (ThermoFisher Scientific) (1:5) and incubated with LPS (10ng/ml) and increasing concentration of ethyl pyruvate (A-D) or ethyl lactate (E-H) (1 to 20 mM) for 6 h at 37°C with 5% CO2. Following incubation, the plates were centrifuged at 2000g for 10 min and the proinflammatory cytokines were analysed by cytometric bead array using a FACSCalibur and the CellQuestTMSoftware (BD Biosciences).

SMILES | activity of neuraminidase [1] | cytopathic effect of the influenza virus (cellular structures and confluency) (influenza virus H9N2) | release of inflammatory cytokines (TNF-alpha, IL-1β, IL-6, IL-8) [2] | toxic effect on MDCK II cells (MDCK II cells)
CCOC(=O)C(C)O (centres unmarked) [ethyl lactate] | only minimum inhibitory effect | does not protect MDCK II cells from the cytopathic effect of the virus | effectively inhibited | no toxic effect
CCOC(=O)C(C)=O [ethyl pyruvate, Ethyl pyruvate] | inhibits activity of neuraminidase in a concentration-dependent manner | the cellular structures and confluency is preserved | effectively inhibited | no toxic effect
